Data published in publication PMC7126545 (Bioorganic & Medicinal Chemistry Letters, 2016).

Tests used:
[1] = system: L1210, CEM and HeLa cells; conditions: for cytostatic activity (in words): tumour cell lines
in vitro [2] = conditions: mouse (L1210), human (CEM, HeLa)
in vitro [3] = test: in vitro

Row | IC50 (in vitro [2]) [µM] | SMILES | times less potent than EAdo ([1]; cytostatic potency relative to EAdo in the three cell lines) | CC50 (in vitro [3]) [µM] | cytostatic activity (in words) [1]
1 | 22 to 50 | C#C[C@@]1(O)[C@@H](CO)O[C@@H](n2cnc3c(NCc4cccc(Cl)c4)nc(Cl)nc32)[C@@H]1O [Compound 10] | at least 30 | 34.5 | 
2 |  | C#C[C@@]1(O)[C@@H](CO)O[C@@H](n2cnc3c(N)nc(Cl)nc32)[C@@H]1O [Compound 7] |  |  | did not show any cytostatic activity
3 |  | C#C[C@@]1(O)[C@@H](CO)O[C@@H](n2cnc3c(N)ncnc32)[C@@H]1O [Compound 1, 3′-C-ethynyladenosine, reference compound] |  |  | potent cytostatic activity
